Reference: patent US20080020076A1, “Methods and Therapies for Potentiating a Therapeutic Action of an Alpha-2 Adrenergic Receptor Agonist and Inhibiting and/or Reversing Tolerance to Alpha-2 Adrenergic Receptor Agonists” (priority 2006, published 2008)

Assays:
[1] = test system: alpha-2 adrenergic receptor; assay: tail flick test (thermal antinociception), intrathecal drugs; assay type: in vivo, rat
[2] = test system: alpha-2 adrenergic receptor; assay: acute tolerance to spinal L-norepinephrine analgesia, tail flick test; assay type: in vivo, rat
Method: (§1) The effect of normal saline (20 μl) was also evaluated by injection at 90 minute intervals. Pain responses were evaluated in the tail flick and paw pressure test at 30 minute intervals.
(§2) Experiments were conducted using adult male Sprague-Dawley rats (Charles River, St. Constant, QC, Canada) weighing between 200-250 grams. Animals were housed individually in standard laboratory cages, maintained on a 12-hour light/dark cycle, and provided with food and water ad libitum. The surgical placement of chronic indwelling intrathecal catheters (polyethylene PE 10 tubing, 7.5 cm) into the spinal subarachnoid space was made under 4% halothane anesthesia, using the method of Yaksh and Rudy Physiol. Behav. 1976 7:1032-1036). Specifically, the anesthetized animal was placed prone in a stereotaxic frame, a small incision made at the back of the neck, and the atlanto-occipital membrane overlying the cisterna magna was exposed and punctured with a blunt needle. The catheter was inserted through the cisternal opening and slowly advanced caudally to position its tip at the lumbar enlargement. The rostral end of the catheter was exteriorized at the top of the head and the wound closed with sutures. Animals were allowed 3-4 days recovery from surgery and only those free from neurological deficits, such as the hindlimb or forelimb paralysis or gross motor dysfunction, were included in the study. All drugs were injected intrathecally as solutions dissolved in physiological saline (0.9%) through the exteriorized portion of the catheter at a volume of 10 μl, followed by a 10 μl volume of 0.9% saline to flush the catheter.
The tail flick test (D'amour & Smith, J. Pharmacol. Exp. Ther. 1941 72:74-79) was used to measure the response to a thermal nociceptive stimulus. Radiant heat was applied to the distal third of the animal's tail and the response latency for tail withdrawal from the source was recorded using an analgesia meter (Owen et al., J. Pharmacol. Methods 1981 6:33-37)). The stimulus intensity was adjusted to yield baseline response latencies between 2-3 seconds. To minimize tail damage, a cutoff of 10 seconds was used as an indicator of maximum antinociception.
(§3) For the in vivo studies, tail flick and paw pressure values were converted to a maximum percentage effect (M.P.E.): M.P.E.=100×[post-drug response−baseline response]/[maximum response−baseline response]. Data represented in the figures are expressed as mean (±S.E.M.). The ED50 values were determined using a non-linear regression analysis (Prism 2, GraphPad Software Inc., San Diego, Calif., USA). Statistical significance (p<0.05, 0.01. or 0.001) was determined using a one-way analysis of variance followed by a Student Newman-Keuls post hoc test for multiple comparisons between groups.

[3] = test system: alpha-2 adrenergic receptor; assay: acute tolerance to spinal L-norepinephrine analgesia, paw pressure test; assay type: in vivo, rat
Method: as §1, §2
(§4) The paw pressure test (Loomis et al., Pharm. Biochem. 1987 26:131-139) was used to measure the response to a mechanical nociceptive stimulus. Pressure was applied to the dorsal surface of the hind paw using an inverted air-filled syringe connected to a gauge and the value at which the animal withdrew its paw was recorded. A maximum cutoff pressure of 300 mmHg was used to avoid tissue damage.
as §3

[4] = test system: alpha-2 adrenergic receptor; assay: tail flick test (thermal antinociception), intrathecal drugs; assay type: in vivo, rat; remark: listed apart in the source
Method: as §2, with “Animals were allowed 3-4 days recovery from surgery and only those free from neurological deficits, such as the hindlimb or forelimb paralysis or gross motor dysfunction, were included in the study. All drugs were injected intrathecally as solutions dissolved in physiological saline (0.9%) through the exteriorized portion of the catheter at a volume of 10 μl, followed by a 10 μl volume of 0.9% saline to flush the catheter.” left out
The tail flick test (D'amour & Smith, J. Pharmacol. Exp. Ther. 1941 72:74-79) was used to measure the response to a thermal nociceptive stimulus. Radiant heat was applied to the distal third of the animal's tail and the response latency for tail withdrawal from the source was recorded using an analgesia meter (Owen et al., J. Pharmacol. Methods 1981 6:33-37)). […]
A single injection of clonidine was administered intrathecally and the response measured in the tail flick and paw pressure test. […]
as §3

alpha-2 adrenoceptors = conditions: versus yohimbine; cited from earlier work
[5] = test system: alpha-2 adrenergic receptor; assay: paw pressure test (mechanical antinociception), intrathecal drugs; assay type: in vivo, rat
Method: as §2, §4
A single injection of clonidine was administered intrathecally and the response measured in the tail flick and paw pressure test. […] Following drug administration, nociceptive testing was performed every 10 minutes for the first 60 minutes and every 30 minutes for the following 120-150 minute period. Results for atipemazole are depicted in FIG. 1A (tail flick) and FIG. 1B (paw pressure).
as §3

[6] = atipemazole 0.08 ng with L-norepinephrine 30 μg intrathecal
[7] = atipemazole 0.0008, 0.008 and 0.08 ng with clonidine 50 nmoles intrathecal
[8] = 24 hours after treatment, atipemazole 0.008 or 0.8 ng combined with norepinephrine
[9] = atipemazole 0.8 ng with L-norepinephrine 30 μg, three intrathecal injections at 90 minute intervals
[10] = atipemazole 0.008 or 0.8 ng combined with norepinephrine, x3, 24 hours after
[11] = combination of norepinephrine 30 μg and atipemazole 0.8 ng, x3 at 90 minute intervals
[12] = atipemazole 1, 5, 10 μg co-administered with clonidine 200 nmoles intrathecal
[13] = clonidine 50 nmoles (13.3 μg) intrathecal, alone
[14] = clonidine 50 nmoles (13.3 μg) intrathecal, alone, listed as Clonidine
[15] = clonidine 200 nmoles intrathecal, alone
[16] = single spinal dose of norepinephrine (30 μg), alone
[17] = 24 hours after three successive injections of norepinephrine alone
[18] = norepinephrine alone, 30 μg x3 at 90 minute intervals
[19] = yohimbine 0.0002, 0.005 and 0.02 ng with clonidine 50 nmoles (13.3 μg) intrathecal

With `CCC1(c2cnc[nH]2)Cc2ccccc2C1` [atipemazole] the “effect on norepinephrine analgesia” value [1, 6] was “extended norepinephrine analgesia”, the “effect on clonidine analgesic response” value [1, 7] was “significantly augmented” and the “rightward shift of the L-norepinephrine cumulative dose-response curve” value [2, 8] was “prevented”. For the same compound, the “effect on decline of norepinephrine analgesia on repeated injection” value [2, 9] was “inhibited the decline of norepinephrine analgesia”, the “effect on increase of L-norepinephrine ED50” value [2, 10] was “completely prevented the increase in ED50 values” and the “analgesic response at 240 minutes, after the third dose” value (shortened to “analgesic response at 240 minutes”) [2, 11] was “sustained the maximal analgesic level”. The “rightward shift of the L-norepinephrine cumulative dose-response curve” value [3, 8] was “prevented”, the “effect on decline of norepinephrine analgesia on repeated injection” value [3, 9] was “inhibited the decline of norepinephrine analgesia” and the “effect on increase of L-norepinephrine ED50” value [3, 10] was “completely prevented the increase in ED50 values”. The “analgesic response at 240 minutes” value [3, 11] was “sustained the maximal analgesic level”, the “effect on peak clonidine analgesia” value ([4]; atipemazole 10 μg (highest dose) with clonidine 200 nmoles intrathecal) was “almost abolishing the response” and the “effect on peak clonidine analgesia” value [4, 12] was “dose-related decrease”. The “dose antagonizing the analgesic action of clonidine” value ([4]; intrathecal, co-administered with clonidine 200 nmoles) was “greater than 1 microgram”, the “potency as a displacer of clonidine relative to yohimbine” value (alpha-2 adrenoceptors) was “about 100 times” and the “effect on norepinephrine analgesia” value [5, 6] was “extended norepinephrine analgesia”. The “effect on clonidine analgesic response” value [5, 7] was “significantly augmented” and the “effect on clonidine response” value [5, 12] was “decreased clonidine response in the paw pressure test but only at the highest dose”.
With `Clc1cccc(Cl)c1N=C1NCCN1` [clonidine] the analgesic response [1, 13] was “submaximal analgesic response”, the analgesic response [1, 14] was “submaximal analgesia” and the analgesic response [1, 15] was “maximal analgesic response”. The analgesic response [5, 13] was “submaximal analgesic response”, the analgesic response [5, 14] was “submaximal analgesia” and the analgesic response [5, 15] was “a lesser effect”.
In the case of `NC[C@H](O)c1ccc(O)c(O)c1` [norepinephrine, L-norepinephrine], the “time at which analgesia terminated” value [1, 16] is reported as 180 min, the “time of peak analgesia” value [1, 16] is reported as 30 min and the “L-norepinephrine ED50 versus saline control group” value [2, 17] is reported as “increased significantly”. The “analgesic response at 240 minutes” value [2, 18] was “significantly declined towards pre-drug baseline value”, the “L-norepinephrine ED50 versus saline control group” value [3, 17] was “increased significantly” and the “analgesic response at 240 minutes” value [3, 18] was “significantly declined towards pre-drug baseline value”. The “time at which analgesia terminated” value [5, 16] was 180 min and the “time of peak analgesia” value [5, 16] was 30 min.
For `COC(=O)[C@@H]1[C@H]2C[C@H]3c4[nH]c5ccccc5c4CCN3C[C@@H]2CC[C@@H]1O` [yohimbine], the “effect on clonidine analgesic response” value [1, 19] was “significantly augmented” and the “effect on clonidine analgesic response” value [5, 19] was “significantly augmented”.
